Here are results for 13 compounds from patent US9809586B2, “Inhibitors of collagen prolyl 4-hydroxylase” (WISCONSIN ALUMNI RESEARCH FOUNDATION, priority 2015, dated 2017).

The nature of data set [1]: Assay of Fe(II)-affinity for biheteroaryl ligands (Fe20-EC50 titration, spectrophotometry). Particulars: titration of 20 μM FeSO4, pH 7; mean (±SE) of three replicates. Type of data set: physicochemical. The procedure: A library of biheteroaryl compounds (FIG. 2) was prepared and evaluated them as iron chelators in vitro. The library was assembled either from commercial vendors (pypyr and pyim) or by synthesis using palladium-catalyzed cross-coupling reactions (pypyraz, pypyrid, pyox, and pythi). To evaluate the iron affinity of these compounds in vitro, titration experiments were performed to determine the half-maximal concentration required to form a complex with 20 μM Fe(II) at pH 7.0.
The affinity of biheteroaryl ligands for Fe(II) was determined comparatively by measuring the half-maximal concentration (EC50) required for binding 20 μM Fe(II) (Fe20-EC50) in sodium phosphate buffer at pH 7. Stock solutions of ligands were prepared in either water for high affinity ligands (typically Fe20-EC50<1 mM) or DMSO for low affinity ligands (typically Fe20-EC50>1000 μM). Stock solutions of FeSO4 were prepared in H2O and used within 3 hours of preparation. […] For high affinity ligands, solutions were allowed to equilibrate for 15 min, after which the absorbance was recorded at the λmax for the complex under study. For most low affinity ligands, the corresponding Fe(II) complexes were unstable and observed to dissociate over time. Therefore, the absorbance value was determined within 30 s of mixing, where the absorbance was measured at the λmax for the complex under study. Complexes with pyox were not observed under these conditions. Absorbance values were corrected by subtracting the absorbance value in the absence of ligand. Dose-response curves were generated for each ligand by plotting the absorbance versus the log of the ligand concentration. Fe20-EC50 values for each ligand were interpolated from the dose-response curves by non-linear regression using the sigmoidal dose-response function in Prism. All experiments were performed in triplicate.

A further data set relates to HEK293T cells. As to the kind of experiment: Effect on iron metabolism (immunoblots for ferritin, TfR, HIF-1α) in HEK293T cells. Type of data set: cell-based, human. The following applies: for Level of TFR, HIF-1α, or ferritin: HEK cells, diethyl pyimDC at low levels; for Iron deficient phenotype: HEKs, 100 μM, details in Vasta et al. 2015.
A short description of data set [2]: Estimate of pKa by potentiometric titration. Type of data set: physicochemical. Particulars: water; conjugate acid, estimated by titration of the entire compound. The procedure: The pKa value of biheteroaryl compounds was estimated with potentiometric titration. Compounds (5-10 mM) were dissolved in water and the pH was adjusted to ˜12 by adding 10 M NaOH. The pH of the solution was recorded with an Accumet™ XL500 pH meter equipped with an Orion 912600® pH electrode from Thermo Fisher Scientific while titrating the solution with HCl (1 M or […], as necessary) until a pH value of ˜1.75 was achieved. Titration curves were prepared by plotting the solution pH versus the volume of 1 M HCl added, and pKa values were estimated from derivative plots of the titration curves using Prism software.

The conditions of data set [3]: conjugate acid of pyridine (bipy) or the nonpyridyl ring; cited from earlier work.
Data set [4] has as its system MDA-MB-231 breast cancer cells. As to the kind of experiment: Effect on iron metabolism (immunoblots for ferritin, TfR, HIF-1α) in MDA-MB-231 cells. Particulars: for Iron deficient phenotype: MDA-MB-231 (231s), 100 μM, details in Vasta et al. 2015.
Protocol: (§1) MDA-MB-231 or HEK293T cells were plated at 50,000 cells/well into 12-well plates and grown to confluence (˜24 h) as described in Section X. The cells were washed, and the medium was replaced with 1.0 mL of serum-free medium. Stock solutions of all test compounds were prepared at 100× in DMSO and added to a final concentration of 1× (0.1-0.5 mM). After addition of the test compound or DMSO vehicle, cells were incubated for 24 h. The cells were then washed with 100 μL MPER solution from Thermo Fisher Scientific (Waltham, Mass.) and collected. Protein concentrations were determined by BCA assay (Thermo Fisher Scientific), and samples corresponding to 40 μg total protein were analyzed by immunoblot.
(§2) For all immunoblot analyses, protein samples where boiled in SDS-PAGE buffer, separated by electrophoresis through a Tris-glycine SDS-PAGE gel from Bio-Rad Laboratories (Hercules, Calif.), and subsequently transferred to a PVDF membrane for immunoblotting. All primary antibodies were used at the working dilution specified by the manufacturer. Primary antibodies were visualized using a complementary secondary antibody fused to horseradish peroxidase (HRP), with detection of HRP by chemiluminescence, imaging using an ImageQuant LAS 4000 (GE Healthcare), and quantification by densitometry (ImageJ software). The anti-rabbit antibody from Promega and the anti-mouse antibody from Abbiotec (San Diego, Calif.) were used at the working dilution specified by the manufacturer.
(§3) For investigations of iron metabolism, protein samples (40 μg) were separated by SDS-PAGE through a 12% w/v acrylamide gel, and blots were probed with primary antibodies to human ferritin (rabbit monoclonal) from Abcam (Cambridge, Mass.), human transferrin receptor (mouse monoclonal) from Invitrogen, human HIF-1α (mouse monoclonal) from BD Biosciences, and human β-actin (rabbit monoclonal) from Cell Signaling Technology (Danvers, Mass.). Quantifications were normalized to the signal from β-actin, after which treated samples were compared to vehicle-treated controls.
Another data set concerns P4HA1. As to the kind of experiment: Effect on P4HA1 levels (immunoblot). Type of data set: cell-based, human. Particulars: MDA-MB-231. The procedure:
For investigations of P4HA1 levels, protein samples were treated and quantified as described above for iron metabolism except that the blots were probed with primary antibodies to human P4HA1 (rabbit polyclonal) from Thermo Fisher Scientific and human β-actin.

Data set [5] deals with MDA-MB-231 cells. As to the kind of experiment: Effect on secretion of type I collagen into conditioned media. The class given is cell-based, human. The procedure:
For investigations of collagen secretion, protein samples were separated by SDS-PAGE through a 7.5% w/v acrylamide gel. Blots were first stained for total protein using Ponceau S, after which they were probed with a primary antibody to human type-I collagen (α1) (rabbit polyclonal) from Novus Biologicals (Littleton, Colo.).
After the addition of a test compound or vehicle (DMSO), cells were incubated for 48 h, after which 1.0 mL of conditioned medium was removed and added to 4.0 mL of chilled acetone (−20° C.). The resultant mixtures were incubated for 3 h at −20° C., after which the precipitated protein was pelleted by centrifugation at 10,000 g for 30 min. The supernatants were discarded and the pellets dried briefly in a fume hood. Pellets were stored at −20° C. prior to analysis with an immunoblot.

The subject of data set [6] is MDA-MB-231 cells. As to the kind of experiment: Cytotoxicity assay (MTS). The following applies: MDA-MB-231, 24 h; higher than aqueous solubility limit. Type of data set: cell-based. The procedure:
The toxicity of esterified biheteroaryl compounds for human breast cancer cells was evaluated with the CellTiter 96® AQueous One Solution Cell Proliferation Assay (MTS) from Promega (Madison, Wis.). Briefly, MDA-MB-231 cells grown as described in Section X were plated at a concentration of 5,000 cells/well in a clear 96-well plate. The cells were allowed to adhere for 4 h, after which the medium was removed and discarded. Fresh medium was added and the cells were treated with varying concentrations of the test compound at 37° C. for 24 h. The medium was removed, and cells were washed with Dulbecco's PBS. The MTS reagent was added at a ratio of 1:5, and the cells were incubated at 37° C. for 2 h before measuring the absorbance at 490 nm. The average absorbance was measured in triplicate for each concentration tested, and the entire experiment was repeated in duplicate. The percentage of viable cells was determined by normalizing to a PBS control (100% viable), and a H2O2 control (0% viable). For all of the compounds tested, the LD50-value could not be measured due to its being higher than the aqueous solubility limit: diethyl bipy55′DC, LD50>100 μM; diethyl pyimDC, LD50>1000 μM; diethyl pythiDC, LD50>500 μM.

A further data set relates to IRPs. As to the kind of experiment: Electrophoretic mobility shift assay for IRE-binding by IRPs from treated cells. The class given is cell-based, human. Particulars: treated MDA-MB-231 cells, 24 h, radiolabeled RNA ligand. The procedure:
The resultant pellets (˜50 μL) were washed with PBS and then lysed using a protocol described previously.^41 Briefly, cell pellets were resuspended in 200 μL of cell lysis buffer, which was 20 mM Hepes-HCl buffer, pH 7.4, containing sodium pyrophosphate (10 mM), sodium fluoride (50 mM), β-glycerophosphate (50 mM), EDTA (5 mM), GTP (1 mM), sodium orthovanadate (1 mM), benzamidine hydrochloride (2 mM), Nonidet NP-40 (0.5% v/v), p-nitrophenyl p′-guanidinobenzoate-HCl (25 μg/mL), DTT (1 mM), leupeptin (40 μg/mL), pepstatin (4 μg/mL), SBTI (100 μg/mL), MG132 (10 μM), PMSF (200 μM), and BHT (5 μg/mL) by vortexing and lysed on ice by vortexing every few min. After 15 min, the lysates were centrifuged at 14,000 rpm and the supernatants aliquoted and stored at −80° C. until analysis by an electrophoretic mobility shift assay (EMSA).
EMSAs were performed and quantified essentially as described previously.^42 Briefly [^32P]-L-ferritin IRE (1 nM RNA, specific radioactivity ˜7,000 dpm/fmol) was incubated with lysate protein (2.5 μg as determined by the Bradford assay) in binding buffer for 10 min on ice. Heparin was added (to 0.5 mg/mL), and the reaction mixture was incubated for an additional 5 min on ice before separating bound and free RNA on a nondenaturing polyacrylamide gel at ambient temperature.

For the next data set, the target named is T1, human CP4H1 (Homo sapiens, UniProt P13674).
T1 construct: made in house; host or cells: Origami B(DE3) Escherichia coli
T1 sequence (P13674 18-534): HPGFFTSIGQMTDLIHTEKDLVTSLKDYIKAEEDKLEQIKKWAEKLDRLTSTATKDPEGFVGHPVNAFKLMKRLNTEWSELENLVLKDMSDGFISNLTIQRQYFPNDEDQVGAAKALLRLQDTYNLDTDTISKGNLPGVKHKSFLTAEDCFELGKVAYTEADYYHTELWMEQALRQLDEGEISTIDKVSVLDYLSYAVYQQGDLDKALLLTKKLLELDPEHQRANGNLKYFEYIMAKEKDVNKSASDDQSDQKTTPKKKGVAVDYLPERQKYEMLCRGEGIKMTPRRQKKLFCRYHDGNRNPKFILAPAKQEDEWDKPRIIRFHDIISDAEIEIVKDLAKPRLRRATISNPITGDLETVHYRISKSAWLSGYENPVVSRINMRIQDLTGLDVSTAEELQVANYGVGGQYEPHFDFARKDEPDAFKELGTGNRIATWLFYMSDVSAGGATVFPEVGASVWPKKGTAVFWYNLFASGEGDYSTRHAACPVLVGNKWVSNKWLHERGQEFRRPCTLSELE
T1 sequence (P07237 18-508 partner): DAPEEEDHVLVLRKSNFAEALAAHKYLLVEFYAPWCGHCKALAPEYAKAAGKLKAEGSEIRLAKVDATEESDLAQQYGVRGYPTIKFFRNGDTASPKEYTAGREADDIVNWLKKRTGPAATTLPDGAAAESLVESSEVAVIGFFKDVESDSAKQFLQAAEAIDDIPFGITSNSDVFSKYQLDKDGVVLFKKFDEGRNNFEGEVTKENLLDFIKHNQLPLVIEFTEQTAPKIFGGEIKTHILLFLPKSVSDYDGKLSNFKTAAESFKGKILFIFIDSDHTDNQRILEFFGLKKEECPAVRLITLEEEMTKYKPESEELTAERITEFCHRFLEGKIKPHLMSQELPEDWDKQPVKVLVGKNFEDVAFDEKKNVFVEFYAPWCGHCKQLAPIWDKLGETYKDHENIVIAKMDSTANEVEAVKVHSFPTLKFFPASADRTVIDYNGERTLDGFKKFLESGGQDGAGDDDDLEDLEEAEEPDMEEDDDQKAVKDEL
As to the kind of experiment: Assay of human CP4H1 activity in the presence of inhibitors. The class given is biochemical. The following applies: 10 μM compound, 50 μM FeSO4. The procedure:
The catalytic activity of human CP4H1 was assayed as described previously.^35 Briefly, activity assays were carried out at 30° C. in 100 μL Tris-HCl buffer, pH 7.8, containing human CP4H1 (100 nM), inhibitor (0-500 μM), substrate (dansylGlyProProGlyOEt, 500 μM), FeSO4 (50 μM), BSA (1 mg/mL), catalase (0.1 mg/mL), sodium ascorbate (2 mM), DTT (100 μM), and α-ketoglutarate (100 μM). Reactions were pre-incubated with or without inhibitor for 2 min at 30° C., after which the reaction was initiated by the addition of α-ketoglutarate. After 15 min, reactions were quenched by boiling for 45 s and centrifuged at 10,000 g. The supernatant (20-50 μL) was injected into a Nucleodur® C18 Gravity reversed-phase column (4.6×250 mm, 5 μm particle size) from Macherey-Nagel (Bethlehem, Pa.). The column was eluted at 1 mL/min with a gradient (20 min) of aqueous acetonitrile (20-45% v/v) containing 0.1% v/v TFA. The absorbance of the eluent was monitored at 289 nm. All assays were performed in triplicate. Data are reported as activity relative to control reactions lacking inhibitor, where catalytic activity is determined from the percent conversion of substrate to product. Dose-response curves were generated for each inhibitor by plotting the relative activity versus the log of the inhibitor concentration. IC50-values for each inhibitor were interpolated from the data by non-linear regression using the sigmoidal dose-response function available in Prism.

Protocol for HEK293T cells: as §1, §2, §3

Consider `c1ccc(-c2nccs2)nc1` [pythi, 2-(Thiazol-2-yl)pyridine], for which, in [1], the EC50 amounted to 5100 ± 100 µM. For the same compound, the “Level of TFR, HIF-1α, or ferritin” value in the data set on HEK293T cells is listed as “did not affect”. In addition, in [2], the pKa is less than 3. Also, the “Heteroaryl pKa (ref.)” value in data set [3] was 2.5 (53).
As to `CCOC(=O)c1ccc(-c2ncc(C(=O)OCC)s2)nc1` [diethyl pythiDC, Ethyl 2-(5-ethoxycarbonylthiazol-2-yl)pyridine-5-carboxylate], the “Concentration at which no iron-deficient phenotype is observed” value in data set [4] (MDA-MB-231, 24 h) was no more than 500 µM. Also, the “Iron-deficiency phenotype of treated cells” value in data set [4] (MDA-MB-231, 24 h, EDHB 500 μM, diethyl pythiDC up to 500 μM) is on record as “normal”. Moreover, in the data set on HEK293T cells, the “Level of TFR, HIF-1α, or ferritin” value is listed as “did not affect”. Also, in the data set with P4HA1, the “Levels of human CP4H1 (P4HA1) itself” value is on record as “did not appear to affect”. Besides, in the data set on MDA-MB-231 cells [5] (MDA-MB-231), the “Efficacy on collagen secretion compared with diethyl bipy55′DC” value was “indistinguishable”. In the data set with MDA-MB-231 cells [5] (MDA-MB-231, 48 h, conditioned media), the “Level of secreted type I collagen” value is “reduced the level of secreted collagen significantly”. Also, in the data set with MDA-MB-231 cells [6], the LD50 is greater than 500 µM. Besides, the “RNA binding by IRPs” value with IRPs was “did not”.
In [1], `c1ccc(-c2cc[nH]n2)nc1` [pypyr, 2-(1H-pyrazol-3-yl)pyridine, reference compound] registered an EC50 of 2250 ± 100 µM. Moreover, the pKa in [2] was 4.1. For the same compound, the “Heteroaryl pKa (ref.)” value in data set [3] is recorded as 2.5 (52).
Turning to `CCOC(=O)c1ccc(-c2cc(C(=O)OCC)ccn2)nc1` [diethyl bipy45′DC, Diethyl 2,2′-bipyridine-4,5′-dicarboxylate, reference compound], the Iron deficient phenotype entry (in data set [4]; in the data set with HEK293T cells) was “did not cause iron deficiency” in each case.
For `Cn1c(C(=O)O)cnc1-c1ccc(C(=O)O)cn1` [NMe-pyimDC, 2-(5-Carboxy-1-methyl-1H-imidazol-2-yl)pyridine-5-carboxylic Acid], the “Inhibition of catalytic activity of human CP4H1 in initial screen” value (“Inhibition” below) on human CP4H1 is “potency is less than that of pyimDC”.
Take `c1ccc(-c2cnccn2)nc1` [pypyraz, 2-(Pyridin-2-yl)pyrazine]: in data set [1], the EC50 came out at 400 ± 7 µM. In addition, in [2], the pKa was less than 3. For the same compound, the “Heteroaryl pKa (ref.)” value in data set [3] is given as 0.8 (50).
On to `CCOC(=O)c1ccnc(-c2cc(C(=O)OCC)ccn2)c1` [diethyl bipy44′DC, reference compound], for which the Iron deficient phenotype entry (in data set [4]; with HEK293T cells) was “distinct iron deficient phenotype” throughout.
Consider `c1ccc(-c2cccnn2)nc1` [pypyrid], for which, in [1], the concentration giving a half-maximal response (EC50) is 124 ± 1 µM. The pKa in data set [2] was less than 3. Moreover, in data set [3], the “Heteroaryl pKa (ref.)” value is 2.3 (49).
As to `c1ccc(-c2ncc[nH]2)nc1` [pyim, 2-(1H-Imidazol-2-yl)pyridine, reference compound], in [1], a half-maximal effect (EC50) was put at 900 ± 30 µM. Also, the “Level of TFR, HIF-1α, or ferritin” value in the data set on HEK293T cells is “did not affect”. Also, in data set [2], the pKa is 5.4. Besides, the “Heteroaryl pKa (ref.)” value in [3] was 7.1 (51).
As to `CCOC(=O)c1ccc(-c2ccc(C(=O)OCC)cn2)nc1` [diethyl bipy55′DC, Diethyl 2,2′-bipyridine-5,5′-dicarboxylate, reference compound], the Iron deficient phenotype entry (in data set [4]; in the data set with HEK293T cells) was “did not cause iron deficiency” throughout. Also, the LD50 in the data set on MDA-MB-231 cells [6] was greater than 100 µM.
`c1ccc(-c2ncco2)nc1` [pyox, 2-(Oxazol-2-yl)pyridine] had an EC50 in [1] greater than 18000 µM. For the same compound, the pKa in [2] was less than 3. In addition, the “Heteroaryl pKa (ref.)” value in [3] is 0.8 (54).
For `O=C(O)c1ccc(-c2cc(C(=O)O)[nH]n2)nc1` [pypyrDC, 2-(5-Carboxy-1H-pyrazol-3-yl)pyridine-5-carboxylic Acid], the “Inhibition” value at human CP4H1 was “modest activation”.
For `O=C(O)c1ccc(-c2ccc(C(=O)O)nn2)nc1` [pypyridDC, 6-(5-Carboxypyridin-2-yl)pyridazine-3-carboxylic Acid], on human CP4H1, the “Inhibition” value is recorded as “modest activation”.
